Measured values as given in patent US20220098265A1 (MEDIMMUNE LIMITED, priority 2012, published 2022).
Read-outs that look alike come from different tables or passages of the source. Values belong to the compound of their own block, whether it stands above or below them. Numbered stars: 1 amine (or outer) side, 2 acyl side, 3 side chain; on linkers, the order of the positions; unused ones are H or OH. Side chains are listed from the residue outwards. Peptide text beside a SMILES is read from it. * marks the point of attachment. γGlu = O=C(O)[C@H](CCC(=O)[*:2])N[*:1]; Palmitoyl = CCCCCCCCCCCCCCCC(=O)*

Key:
Human GIPr = target: T1, Human GIPr (Homo sapiens, UniProt P48546); test: cAMP activity assay 1 in assay medium, human GIP receptor; format: cell-based; details: additional peptides (Table 4)
T1 construct: expressed in transfected cells
T1 sequence (P48546 22-466): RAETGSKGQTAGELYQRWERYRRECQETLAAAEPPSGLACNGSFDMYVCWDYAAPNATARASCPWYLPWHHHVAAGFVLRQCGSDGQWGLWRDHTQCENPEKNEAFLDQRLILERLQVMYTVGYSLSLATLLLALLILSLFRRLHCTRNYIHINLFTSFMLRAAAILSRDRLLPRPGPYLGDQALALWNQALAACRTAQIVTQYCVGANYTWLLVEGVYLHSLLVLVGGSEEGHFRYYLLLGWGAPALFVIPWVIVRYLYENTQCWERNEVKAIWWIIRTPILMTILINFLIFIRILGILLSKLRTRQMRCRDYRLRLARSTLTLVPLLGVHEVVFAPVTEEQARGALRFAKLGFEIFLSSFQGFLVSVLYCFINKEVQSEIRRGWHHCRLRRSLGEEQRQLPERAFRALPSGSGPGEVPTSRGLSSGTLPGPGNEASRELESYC

Human GLP1R = Human GLP1R (Homo sapiens, UniProt P43220); details: read-out: hGLP1R EC50; assay 1; additional peptides (Table 4)
Human GlucR [1] = target: T2, Human GlucR (Homo sapiens, UniProt P47871); details: read-out: hGlucR EC50; assay 1; additional peptides (Table 4)
[2] = Stability testing of peptides in human plasma; format: in vitro ADME
Experimental: Stability testing of peptides in plasma. The stability in plasma of the peptides […], […], […] and […] was determined as follows. […] The frozen blank plasma from human, rat and mouse had been thawed and heated to a temperature of 37° C. before addition of the stock solution. The spiked plasma samples were gently mixed and allowed to equilibrate for about 5 minutes before start of experiment. The plasma samples were incubated for 48 hours in a Galaxy® CO2 incubator at 37° C. […] The samples were stored at -70° C. until analysis. Plasma samples were assayed as follows. The 30 μL plasma samples were protein precipitated with […] of cold ethanol in a 96-well low bind plate (Eppendorf Protein LoBind). After mixing and centrifugation 100 μl the supernatant was transferred to a new plate and 1 μl was injected onto an analytical column. The analysis was performed using a μLC-system ([…]) coupled to a medium high resolution mass spectrometer (Perkin Elmer PenTOF) with positive electrospray ionisation. […] Flow: 0.1 ml/min using a slow reversed phase gradient. […] Products with +1 mass may arise from deamidation at amide groups of glutamine or at the C-terminus. Cleavage products arise from the action of the protease DPP IV in plasma. Both the degradation of the peptides and formation of peptide products were reported in percentage of the initial peptide concentration. Peaks were integrated and % remaining peptide was calculated: […] Levels of deamidation and DPP IV cleavage were low for […] and […].

DIO mice = test: Diet induced obesity (DIO) mouse model, study B; format: in vivo; details: for BW day 14 (% change of vehicle mean) / HOMA / Hepatic TG (g TG/100g tissue) / Plasma NEFA / Plasma TG: day 14; for Glucose / Insulin: day 14, 4-hour fasting
Experimental: The body weight of the animals was monitored daily throughout the dosing period At day 14, blood samples for the measurement of plasma glucose and insulin from conscious mice were obtained after a 4-hour fasting period. Mice were then anaesthetized using isofluorane and terminal blood was collected from the capillary bed behind the eye. The following parameters were measured: blood chemistry measurements of triglycerides, total cholesterol, non-esterified fatty acids (NEFA), beta-hydroxybutyrate and fibroblast growth factor 21 (FGF21) (Table 16 and Table 17 below).

human serum albumin = human serum albumin (Homo sapiens, UniProt P02768); test: Fraction of free peptide at plasma concentration of albumin, calculated from variation in cAMP generation with HSA concentration; format: in vitro ADME; parameters: purchased Sigma Aldrich
Mouse GlucR = Mouse GlucR (Mus musculus, UniProt Q61606); test: cAMP assay 2 in […] mouse serum albumin, mouse GlucR; details: assay 2, […] Mouse Serum Albumin; relative potencies vs natural ligands
Human GlucR [3] = target: T2, Human GlucR; test: cAMP assay 2 in 4.4% human serum albumin, human GlucR; details: assay 2, 4.4% Human Serum Albumin; relative potency GlucR (vs glucagon)/relative potency GLP1R (vs GLP1)

Human GLP1R, sequence (P43220 24-463): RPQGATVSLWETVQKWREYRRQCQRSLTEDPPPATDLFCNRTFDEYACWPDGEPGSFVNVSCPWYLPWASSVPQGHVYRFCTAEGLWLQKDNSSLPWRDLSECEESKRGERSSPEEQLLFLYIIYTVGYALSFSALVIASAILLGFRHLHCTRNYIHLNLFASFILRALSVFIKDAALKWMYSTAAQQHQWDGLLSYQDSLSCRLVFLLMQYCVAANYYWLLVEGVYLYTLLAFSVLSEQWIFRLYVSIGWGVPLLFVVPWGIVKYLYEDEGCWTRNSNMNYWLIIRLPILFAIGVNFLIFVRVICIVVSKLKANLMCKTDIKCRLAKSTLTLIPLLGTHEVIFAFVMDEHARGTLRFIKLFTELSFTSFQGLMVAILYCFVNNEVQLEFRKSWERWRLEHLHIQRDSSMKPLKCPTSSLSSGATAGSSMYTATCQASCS
T2 sequence (P47871 26-477): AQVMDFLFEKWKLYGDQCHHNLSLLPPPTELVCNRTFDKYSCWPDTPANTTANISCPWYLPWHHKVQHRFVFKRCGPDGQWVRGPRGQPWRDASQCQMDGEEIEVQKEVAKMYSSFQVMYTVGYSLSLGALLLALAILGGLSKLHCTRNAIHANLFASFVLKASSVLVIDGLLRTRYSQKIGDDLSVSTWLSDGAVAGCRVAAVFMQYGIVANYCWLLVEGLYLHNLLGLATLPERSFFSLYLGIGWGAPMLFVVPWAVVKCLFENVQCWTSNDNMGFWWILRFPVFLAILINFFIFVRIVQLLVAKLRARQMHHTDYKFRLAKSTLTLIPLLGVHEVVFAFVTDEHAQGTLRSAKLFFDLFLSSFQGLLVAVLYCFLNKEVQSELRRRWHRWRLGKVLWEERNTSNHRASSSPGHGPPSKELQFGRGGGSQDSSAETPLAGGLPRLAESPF
human serum albumin, sequence (P02768 25-609): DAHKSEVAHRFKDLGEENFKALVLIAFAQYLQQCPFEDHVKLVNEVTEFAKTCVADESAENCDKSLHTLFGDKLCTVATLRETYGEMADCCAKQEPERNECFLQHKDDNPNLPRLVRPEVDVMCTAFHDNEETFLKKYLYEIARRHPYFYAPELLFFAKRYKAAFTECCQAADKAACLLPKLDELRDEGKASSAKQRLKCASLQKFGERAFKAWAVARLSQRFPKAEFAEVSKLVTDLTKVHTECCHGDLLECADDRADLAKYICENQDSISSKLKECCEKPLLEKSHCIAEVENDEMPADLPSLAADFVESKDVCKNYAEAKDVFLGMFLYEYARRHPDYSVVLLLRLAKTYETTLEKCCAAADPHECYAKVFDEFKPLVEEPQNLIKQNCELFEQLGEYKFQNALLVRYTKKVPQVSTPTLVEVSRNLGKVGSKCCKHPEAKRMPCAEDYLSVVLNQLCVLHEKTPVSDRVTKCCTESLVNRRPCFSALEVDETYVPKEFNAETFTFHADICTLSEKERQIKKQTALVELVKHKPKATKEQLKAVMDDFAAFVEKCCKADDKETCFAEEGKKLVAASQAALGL
Mouse GlucR, sequence (Q61606 27-485): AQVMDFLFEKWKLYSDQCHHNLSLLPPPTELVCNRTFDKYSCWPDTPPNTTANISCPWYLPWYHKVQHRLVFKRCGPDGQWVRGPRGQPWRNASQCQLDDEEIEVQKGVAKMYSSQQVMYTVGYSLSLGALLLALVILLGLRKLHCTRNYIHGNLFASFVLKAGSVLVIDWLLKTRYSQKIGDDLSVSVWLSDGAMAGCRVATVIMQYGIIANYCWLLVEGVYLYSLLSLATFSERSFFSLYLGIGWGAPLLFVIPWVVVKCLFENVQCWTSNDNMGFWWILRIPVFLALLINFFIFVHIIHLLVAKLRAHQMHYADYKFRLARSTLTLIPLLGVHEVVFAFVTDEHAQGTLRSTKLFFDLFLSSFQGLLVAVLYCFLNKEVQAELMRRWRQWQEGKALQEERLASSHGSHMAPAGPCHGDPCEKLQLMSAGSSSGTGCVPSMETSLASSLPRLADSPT

EC50 (Human GIPr; g688, read-out: hGIPR EC50): 112 nM
Compound: CCCCCCCCCCCCCCCC(=O)N[C@@H](CCC(=O)NCCCC[C@H](NC(=O)[C@H](CO)NC(=O)[C@H](CC(=O)O)NC(=O)[C@H](CC(C)C)NC(=O)[C@H](Cc1ccc(O)cc1)NC(=O)[C@H](CCCCN)NC(=O)[C@H](CO)NC(=O)[C@H](Cc1ccc(O)cc1)NC(=O)[C@H](CC(=O)O)NC(=O)[C@H](CO)NC(=O)[C@@H](NC(=O)[C@H](Cc1ccccc1)NC(=O)[C@@H](NC(=O)CNC(=O)[C@H](CCC(N)=O)NC(=O)[C@H](CO)NC(=O)[C@@H](N)Cc1c[nH]cn1)[C@@H](C)O)[C@@H](C)O)C(=O)N[C@@H](CCCNC(=N)N)C(=O)N[C@@H](C)C(=O)N[C@@H](CCC(=O)O)C(=O)N[C@@H](CC(=O)O)C(=O)N[C@@H](Cc1ccccc1)C(=O)N[C@H](C(=O)N[C@@H](CCC(N)=O)C(=O)N[C@@H](Cc1c[nH]c2ccccc12)C(=O)N[C@@H](CC(C)C)C(=O)N[C@H](C(=O)N[C@@H](C)C(=O)NCC(=O)NCC(N)=O)C(C)C)C(C)C)C(=O)O [g599]

EC50 (Human GLP1R): 0.0212 nM
EC50 (Human GIPr; read-out: hGIPR EC50): 89.6 nM
EC50 (Human GlucR [1]): 0.00219 nM
Compound: CCCCCCCCCCCCCCCC(=O)N[C@@H](CCC(=O)NCCCC[C@H](NC(=O)[C@H](Cc1ccc(O)cc1)NC(=O)[C@H](CCCNC(=N)N)NC(=O)[C@H](CO)NC(=O)[C@H](Cc1ccc(O)cc1)NC(=O)[C@H](CC(=O)O)NC(=O)[C@H](CO)NC(=O)[C@@H](NC(=O)[C@H](Cc1ccccc1)NC(=O)[C@@H](NC(=O)CNC(=O)[C@H](CCC(N)=O)NC(=O)[C@H](CO)NC(=O)[C@@H](N)Cc1c[nH]cn1)[C@@H](C)O)[C@@H](C)O)C(=O)N[C@@H](CC(=O)O)C(=O)N[C@@H](CO)C(=O)N[C@@H](CCCNC(=N)N)C(=O)N[C@@H](CO)C(=O)N[C@@H](C)C(=O)N[C@@H](CCCNC(=N)N)C(=O)N[C@@H](CC(=O)O)C(=O)N[C@@H](Cc1ccccc1)C(=O)N[C@H](C(=O)N[C@@H](C)C(=O)N[C@@H](Cc1c[nH]c2ccccc12)C(=O)N[C@@H](CC(C)C)C(=O)N[C@@H](CCC(=O)O)C(=O)N[C@@H](C)C(N)=O)C(C)C)C(=O)O [g850] (H-HSQGTFTSDYSRYK([γGlu-Palmitoyl])DSRSARDFVAWLEA-NH2)

More lines, now with the values behind:

Compound: CCCCCCCCCCCCCCCC(=O)N[C@@H](CCC(=O)NCCCC[C@H](NC(=O)[C@H](CC(=O)O)NC(=O)[C@H](CO)NC(=O)[C@@H](NC(=O)[C@H](Cc1ccccc1)NC(=O)[C@@H](NC(=O)CNC(=O)[C@H](CCC(N)=O)NC(=O)[C@H](CO)NC(=O)[C@@H](N)Cc1c[nH]cn1)[C@@H](C)O)[C@@H](C)O)C(=O)N[C@@H](CO)C(=O)N[C@@H](CCC(=O)O)C(=O)N[C@@H](Cc1ccc(O)cc1)C(=O)N[C@@H](CC(C)C)C(=O)N[C@@H](CC(=O)O)C(=O)N[C@@H](CO)C(=O)N[C@@H](CCC(=O)O)C(=O)N[C@@H](CCCNC(=N)N)C(=O)N[C@@H](C)C(=O)N[C@@H](CCCNC(=N)N)C(=O)N[C@@H](CC(=O)O)C(=O)N[C@@H](Cc1ccccc1)C(=O)N[C@H](C(=O)N[C@@H](C)C(=O)N[C@@H](Cc1c[nH]c2ccccc12)C(=O)N[C@@H](CC(C)C)C(=O)N[C@@H](CCC(=O)O)C(=O)N[C@@H](C)C(=O)NCC(=O)NCC(=O)O)C(C)C)C(=O)O [Peptide G933]
% DPP cleaved product/+1 DPP cleaved product [2]: <1%
BW day 14 (% change of vehicle mean) (DIO mice; 5 nmol/kg s.c. twice daily for 14 days): −11%
HOMA (DIO mice; 5 nmol/kg s.c. twice daily): 3.31
Hepatic TG (g TG/100g tissue) (DIO mice; 5 nmol/kg s.c. twice daily): 11.3 g TG/100g tissue
Plasma NEFA (DIO mice; 5 nmol/kg s.c. twice daily): 0.28 mM
Plasma TG (DIO mice; 5 nmol/kg s.c. twice daily): 0.19 mM
Glucose (DIO mice; 5 nmol/kg s.c. twice daily): 6.2 mM
Insulin (DIO mice; 5 nmol/kg s.c. twice daily): 0.53 nM
BW day 14 (% change of vehicle mean) (DIO mice; 10 nmol/kg s.c. twice daily for 14 days): −19%
HOMA (DIO mice; 10 nmol/kg s.c. twice daily): 1.98
Hepatic TG (g TG/100g tissue) (DIO mice; 10 nmol/kg s.c. twice daily): 14.7 g TG/100g tissue
Plasma NEFA (DIO mice; 10 nmol/kg s.c. twice daily): 0.27 mM
Plasma TG (DIO mice; 10 nmol/kg s.c. twice daily): 0.16 mM
Glucose (DIO mice; 10 nmol/kg s.c. twice daily): 7.2 mM
Insulin (DIO mice; 10 nmol/kg s.c. twice daily): 0.27 nM
effect on body weight over the 14 day dosing period (DIO mice; study B, FIGS. 5-8): dose dependent and continuous weight loss
free peptide at 4.4% HSA (human serum albumin): 0.29%
solubility (physchem; pH 7): ≥ 10000 µg/mL
solubility (physchem; pH 7.2): ≥ 5000 µg/mL

Compound: CCCCCCCCCCCCCCCC(=O)N[C@@H](CCC(=O)NCCCC[C@H](NC(=O)[C@H](CO)NC(=O)[C@H](CC(=O)O)NC(=O)[C@H](CC(C)C)NC(=O)[C@H](Cc1ccc(O)cc1)NC(=O)[C@H](CCCCN)NC(=O)[C@H](CO)NC(=O)[C@H](Cc1ccc(O)cc1)NC(=O)[C@H](CC(=O)O)NC(=O)[C@H](CO)NC(=O)[C@@H](NC(=O)[C@H](Cc1ccccc1)NC(=O)[C@@H](NC(=O)CNC(=O)[C@H](CCC(N)=O)NC(=O)CNC(=O)[C@@H](N)Cc1c[nH]cn1)[C@@H](C)O)[C@@H](C)O)C(=O)N[C@@H](CCCNC(=N)N)C(=O)N[C@@H](C)C(=O)N[C@@H](CCC(N)=O)C(=O)N[C@@H](CC(=O)O)C(=O)N[C@@H](Cc1ccccc1)C(=O)N[C@H](C(=O)N[C@@H](CCC(N)=O)C(=O)N[C@@H](Cc1c[nH]c2ccccc12)C(=O)N[C@@H](CC(C)C)C(=O)N[C@H](C(=O)N[C@@H](C)C(=O)NCC(=O)NCC(N)=O)C(C)C)C(C)C)C(=O)O [Peptide G380]
Mouse GlucR/GLP1R Ratio (Mouse GlucR): 0.006
Human GlucR/GLP1R Ratio (Human GlucR [3]): 0.013

Compound: Listed in the section of parent HSQGTFTSDYSKYLDSRRAQDFVQWLEAGG; no modification printed [g536]
EC50 (Human GLP1R): 0.0745 nM
